Reference: ChEMBL document CHEMBL1136131, “Synthesis of poly(ethylene glycol) with sulfadiazine and chlorambucil end groups and investigation of its antitumor activity” (Bioorg Med Chem Lett, 2003)

Assay: Acute toxicity in mice
Settings: mouse, in vivo

With `O=C(O)CCCc1ccc(N(CCCl)CCCl)cc1` [CHLORAMBUCIL] as the compound, how does the LD50 read?
The LD50 was 49.54 mg⁻¹ kg⁻¹.
